Common to all, as to format: cell-based
For one data set, the system named is CD44 mRNA. Put plainly: RT-qPCR of CD44 mRNA after suppression of ELEANOR expression by LNAs. As to conditions: HCC1428-LTED cells, ELEANOR knock-down by LNA. The procedure:
FIG. 5D is a graph showing the results of RT-qPCR analysis of expressions of ESR1 and CD44 when ELEANORS are knocked down by ELEANOR2 LNA and pa-ELEANOR LNA.
Expressions of ESR1, ELEANORS, and CD44 in the HC1428 and HC1428-LTED cells were analyzed by RT-qPCR using the primers below. In the RT-qPCR, total RNA was purified from cultured cells using NucleoSpin RNA/protein kit (MACHEREY-NAGEL) and was reverse-transcribed by ReverTra Ace qPCR RT Master Mix (TOYOBO Co., Ltd.). The RT-qPCR was performed by ABI Prism 7500 (ABI inc.) using SYBR Green.
Subsequently, the ELEANOR expression was suppressed by LNAs of SEQ ID NO: 1 and SEQ ID NO: 41 specific to ELEANORS, and whether the CD44 expression is changed or not was investigated. The expression of CD44 mRNA was decreased by knock-down of these ELEANORS (FIG. 5D).
(In general: Real-time PCR tracks product formation cycle by cycle.)

For data set [1], the system named is HCC1428-LTED cells. Put plainly: FACS analysis of CD44/CD24 expression (breast cancer stem cells) after LNA knock-down of ELEANOR2. As to conditions: LNA transfected with RNAiMAX, analysis after 48 hours. The procedure: ELEANOR2 RNA which is most abundant in ELEANORS was knocked down by LNA, and CD44/CD24 expression was analyzed by FACS (FIG. 5B). The LNA below was transfected using RNAiMAX (Invitrogen), and analysis was performed after 48 hours.
A general note: In flow cytometry, cells or beads pass a laser one at a time.

Data set [2] has as its system HCC1428-LTED cells. Briefly: FACS analysis of CD44 expression on the cell surface after ELEANOR knock-down. On the procedure:
The maximum value in the analysis is defined as 100.
Whether the CD44 expression is changed also at the protein level was investigated. Comparative analysis of CD44 expression between HCC1428 and HCC1428-LTED cells was performed. The LNA of SEQ ID NO: 1 that suppresses ELEANOR expression and siRNA (Thermo Fisher Scientific) that suppresses CD44 expression were introduced into HCC1428-LTED cells, and the CD44 expression was analyzed by Western blotting (FIG. 5E). […] Furthermore, an ELEANOR was knocked down by introducing the LNA of SEQ ID NO: 1 into HCC1428-LTED cells, and whether the CD44 expression on the cell surface is also changed or not was analyzed by FACS.

As for “ELEANOR2-LNA: LNA that knocks down ELEANOR2 RNA, sequence TTTGGCCACATTGGAA (SEQ ID NO: 1) (LNA-modified antisense, pattern not given here)”, the “expression of CD44 mRNA” value with CD44 mRNA is listed as “decreased”. The “number of breast cancer stem cells (CD44+/CD24-/low)” value in the data set with HCC1428-LTED cells [1] is recorded as “significantly decreased”. Also, the “number of CD44+ cells” value in the data set on HCC1428-LTED cells [2] is on record as “decreased”.

As to “pa-ELEANOR-LNA: LNA specific to pa-ELEANOR, sequence GTGCCAGACTCCGATA (SEQ ID NO: 41) (LNA-modified antisense, pattern not given here)”, the “expression of CD44 mRNA” value with CD44 mRNA is “decreased”.

The values above are taken from US20250340944A1, “METHOD TO ASSIST IN SCREENING FOR LATE RECURRENCE OF ER+ BREAST CANCER, AND METHOD FOR SCREENING THERAPEUTIC DRUGS” (JAPANESE FOUNDATION FOR CANCER RESEARCH, priority 2022, published 2025).
